Assay results as given in US20190203240A1, “METHODS FOR THE PRODUCTION OF RHAMNOSYLATED FLAVONOIDS” (Universitaet Hamburg, priority 2016, published 2019).
Several values for one entry are separate records, joined by “and”; a condition that tells them apart may be missing. Equal values may be shown once.

What was measured:
[1] = tested on: lipid peroxides (C11-fluor) in NHEK cells; experiment: Protection against UV-induced lipid peroxide in NHEK (C11-fluor probe, flow cytometry); assay type: cell-based, human; settings: 240 mJ/cm^2 UVB (3538 mJ/cm^2 UVA), 50 μM
Description: (§1) Pre-incubated NHEK were incubated with the test compound for 24 h. Then the specific fluorescence probe for the measurement of hydrogen peroxide (DHR) or lipid peroxides (C11-fluor) was added and incubated for 45 min. Irradiation occurred with in H2O2 determination UVB at 180 mJ/cm^2 (+UVA at 2839 mJ/cm^2) or UVB at 240 mJ/cm^2 (+UVA at 3538 mJ/cm^2) in lipid peroxide, respectively, using a SOL500 Sun Simulator lamp. After irradiation the cells were post-incubated for 30 min before flow-cytometry analysis.

procollagen I = experiment: Stimulation of procollagen I synthesis in NHDF (ELISA); assay type: cell-based, human; settings: 72 hours, 20 μg/ml
Description: (§2) Tests were performed with normal human dermal fibroblast cultures at the 8th passage. Cells were grown in DMEM supplemented with glutamine at 2 mM, penicillin at 50 U/mL and streptomycin (50 μg/mL) and 10% of fetal calf serum (FCS) at 37° C. in a 5% CO2 atmosphere.
(§3) Fibroblasts were cultured for 24 hours before the cells were incubated with the test compounds for further 72 hours. After the incubation the culture supernatants were collected in order to measure the released quantities of procollagen I, VEGF, and fibronectin by means of ELISA. Reference test compounds were vitamin C (procollagen I), PMA (VEGF), and TGF-β (fibronectin).

PGE2 = experiment: Anti-inflammatory potential: secreted PGE2 in stimulated NHEK (ELISA); assay type: cell-based, human; settings: PMA - 1 μg/ml, reference at 10^−6M, cytokine type not given; for Cytokine: single values
Description: NHEK were pre-incubated for 24 h with the test compounds. The medium was replaced with the NHEK culture medium containing the inflammatory inducers (PMA or Poly I:C) and incubated for another 24 hours. Positive and negative controls ran in parallel. At the endpoint the culture supernatants were quantified of secreted IL-8, PGE2 and TNF-α, by means of ELISA.

[2] = tested on: matrix metallopeptidase 1 (MMP-1); experiment: MMP-1 release in UVA-irradiated NHDF (ELISA); assay type: cell-based, human; settings: NHDF irradiated 15 J/cm^2 UVA, 10^−7M
Description: as §2
Human fibroblasts were cultured for 24 hours before the cells were pre-incubated with the test or reference compounds (dexamethasone) for another 24 hours. The medium was replaced by the irradiation medium (EBSS, CaCl2) 0.264 g/L, MgClSO4 0.2 g/L) containing the test compounds) and cells were irradiated with UVA (15 J/cm^2). The irradiation medium was replaced by culture medium including again the test compounds incubated for 48 hours. After incubation the quantity of matrix metallopeptidase 1 (MMP-1) in the culture supernatant was measured using an ELISA kit.

[3] = tested on: normal human epidermal keratinocytes (NHEK); experiment: Cytotoxicity on NHEK monolayer (MTT reduction assay and morphological observation); assay type: cell-based; settings: for Viability (%) Mean / Viability (%): MTT; for Viability (%): single values; for Morph. obs.: microscope
Description: To determine the cytotoxicity of flavonoid-5-O-α-L-rhamnosides tests were performed versus their aglycon derivatives in cell monolayer cultures. For this purpose concentrations ranging from 1 μM to 250 μM were chosen. The viability of normal human epidermal keratinocytes (NHEK) was twice evaluated by a MTT reduction assay and morphological observation with a microscope. NHEK were grown at 37° C. and 5% CO2 aeration in Keratinocyte-SFM medium supplemented with epidermal growth factor (EGF) at 0.25 ng/mL, pituitary extract (PE) at 25 μg/mL and gentamycin (25 μg/mL) for 24 h and were used at the 3rd passage. For cytotoxicity testing, pre-incubated NHEK were given fresh culture medium containing a specific concentration of test compound and incubated for 24 h. After a medium change at same test concentration cells were incubated a further 24 h until viability was determined. Test results are given in Table B2 and illustrated in FIG. 10.

fibronectin = experiment: Stimulation of fibronectin synthesis in NHDF (ELISA); assay type: cell-based, human; settings: 72 h incubation, 10 ng/ml
Description: as §2, §3

[4] = tested on: hydrogen peroxide (DHR) in NHEK cells; experiment: Protection against UV-induced H2O2 stress in NHEK (DHR probe, flow cytometry); assay type: cell-based, human; settings: 180 mJ/cm^2 UVB (2839 mJ/cm^2 UVA), 100 μM
Description: as §1

VEGF = experiment: Stimulation of VEGF release in NHDF (ELISA); assay type: cell-based, human; settings: 72 hours, 1 μg/ml
Description: as §2, §3

For `Cc1cc(C(C)(C)C)c(O)c(C(C)(C)C)c1` [BHT], the “C11-fluor (AU) Mean (1/GMFI)” value [1] was 3.3E−04 AU, the “lipid peroxide % Irradiated control” value [1] was 72% and the “lipid peroxide Protection %” value [1] was 37%. For the same compound, the “C11-fluor (AU) 1/GMFI” value ([1]; single values) was 3.2E−04 AU and 3.3E−04 AU and 3.5E−04 AU and the “C11-fluor (AU) GMFI” value ([1]; single values) was 3139 AU and 3047 AU and 2877 AU.
With `O=C1O[C@H]([C@@H](O)CO)C(O)=C1O` [Vitamin C] the “Procollagen I % Control” value (procollagen I) was 316%, the “Procollagen I % Stimulation” value (procollagen I) was 216% and the “Procollagen I Mean” value (procollagen I) was 5272 ng/mL. For the same compound, the “Procollagen I” value (procollagen I; single values) was 4739 ng/mL and 5854 ng/mL and 5225 ng/mL.
`C[C@@H]1C[C@H]2[C@@H]3CCC4=CC(=O)C=C[C@]4(C)[C@@]3(F)[C@@H](O)C[C@]2(C)[C@@]1(O)C(=O)CO` [Dexamethasone, reference compound] was tested, and the “% stim. control” value (PGE2) was 92%, the “Cytokine [pg/mL] Mean” value (PGE2) was 1437 pg/mL and the “Cytokine” value (PGE2) was 1318 pg/mL and 1556 pg/mL. The “MMP-1 % Irradiated control” value [2] was 4%, the “MMP-1 % Protection” value [2] was 150% and the “MMP-1 (ng/ml), single replicates” value [2] was 2.5 ng/mL and 3.1 ng/mL and 3.2 ng/mL. The “Mean MMP-1” value [2] was 2.9 ng/mL.
With `COc1ccc(C2CC(=O)c3c(O)cc(O)cc3O2)cc1O` (stereo not shown) [Hesperetin, 3′,5,7-Trihydroxy-4′-methoxyflavanone] the “Viability (%) Mean” value ([3]; 1 μM) was 105%, the “Viability (%)” value ([3]; 1 μM) was 103% and 106% and the “Viability (%) Mean” value ([3]; 2.5 μM) was 103%. The “Viability (%)” value ([3]; 2.5 μM) was 98% and 109%, the “Viability (%) Mean” value ([3]; 5 μM) was 106% and the “Viability (%)” value ([3]; 5 μM) was 107% and 106%. The “Viability (%) Mean” value ([3]; 10 μM) was 103%, the “Viability (%)” value ([3]; 10 μM) was 101% and 105% and the “Viability (%) Mean” value ([3]; 25 μM) was 108%. For the same compound, the “Viability (%)” value ([3]; 25 μM) was 106% and 109%, the “Viability (%) Mean” value ([3]; 50 μM) was 106% and the “Viability (%)” value ([3]; 50 μM) was 106%. The “Viability (%) Mean” value ([3]; 100 μM) was 99%, the “Viability (%)” value ([3]; 100 μM) was 98% and 100% and the “Viability (%) Mean” value ([3]; 250 μM) was 57%. The “Viability (%) Mean” value ([3]; 250 μM, listed as hesperetin) was “about 50%” and the “Viability (%)” value ([3]; 250 μM) was 54% and 59%.
TGF-β [listing 1 of 2 here] was tested, and the “Fibronectin % Control” value (fibronectin) was 181%, the “Fibronectin % Stimulation” value (fibronectin) was 81% and the “Fibronectin (ng/ml), single replicates” value (fibronectin) was 10870 ng/mL.
In the case of `COc1ccc2c(c1)c(CC(=O)O)c(C)n2C(=O)c1ccc(Cl)cc1` [Indomethacin], the “% stim. control” value (PGE2) was 2%, the “Cytokine [pg/mL] Mean” value (PGE2) was 39 pg/mL and the “Cytokine” value (PGE2) was 39 pg/mL.
For `COc1ccc(O)c(C(C)(C)C)c1` [BHA], the “H2O2 % irradiated control” value [4] was 42%, the “H2O2 (AU) Mean” value [4] was 776 AU and the “H2O2 Protection %” value [4] was 70%. For the same compound, the “H2O2 (AU) (DHR GMFI)” value ([4]; single values) was 740 AU and 834 AU and 754 AU.
With `CCCCCCCCCCCCCC(=O)O[C@@H]1[C@@H](C)[C@@]2(O)[C@@H](C=C(CO)C[C@]3(O)C(=O)C(C)=C[C@@H]23)[C@@H]2C(C)(C)[C@]12OC(C)=O` [PMA] the “Mean VEGF” value (VEGF) was 148 pg/mL, the “VEGF % Control” value (VEGF) was 205% and the “VEGF % Stimulation” value (VEGF) was 105%. The “VEGF” value (VEGF; single values) was 150 pg/mL and 143 pg/mL.
For TGF-β [listing 2 of 2 here], the “Fibronectin (ng/ml), single replicates” value (fibronectin) was 11178 ng/mL and 11128 ng/mL.
For `O=C1CC(c2ccc(O)cc2)Oc2cc(O)cc(O)c21` (stereo not shown) [Naringenin, 4′,5,7-Trihydroxyflavanone], the “Viability (%) Mean” value ([3]; 1 μM) was 95%, the “Viability (%)” value ([3]; 1 μM) was 96% and 95% and the “Viability (%) Mean” value ([3]; 2.5 μM) was 93%. For the same compound, the “Viability (%)” value ([3]; 2.5 μM) was 95% and 92%, the “Viability (%) Mean” value ([3]; 5 μM) was 92% and the “Viability (%)” value ([3]; 5 μM) was 93% and 91%. For the same compound, the “Viability (%) Mean” value ([3]; 10 μM) was 95%, the “Viability (%)” value ([3]; 10 μM) was 95% and the “Viability (%) Mean” value ([3]; 25 μM) was 92%. For the same compound, the “Viability (%)” value ([3]; 25 μM) was 89% and 94%, the “Viability (%) Mean” value ([3]; 50 μM) was 89% and the “Viability (%)” value ([3]; 50 μM) was 85% and 94%. For the same compound, the “Viability (%) Mean” value ([3]; 100 μM) was 75%, the “Viability (%)” value ([3]; 100 μM) was 76% and 74% and the “Viability (%) Mean” value ([3]; 250 μM) was 47%. For the same compound, the “Viability (%) Mean” value ([3]; 250 μM, listed as naringenin) was “about 50%”, the “Viability (%)” value ([3]; 250 μM) was 48% and 47% and the Morph. obs. ([3]; 100 μM) was “+/−,*”. The Morph. obs. ([3]; 250 μM) was “+/−,*”.
